Assays:
PLC-β = test: ATP-stimulated PLC activity ([3H]-inositol phosphate accumulation) in MDCK cells; format: cell-based, canine; conditions: for Effect on ATP-stimulated PLC (PLC-β) activity: 100 μM ATP; for Effect on ATP-stimulated PLC (PLC-β) activity / IC50: MDCK cells; for IC50: 30 minutes with compound, then 15 minutes stimulation, mean ± SD, read-out: IC50(PLC) (concentration causing fifty percent decrease in ATP- or EGF-stimulated accumulation of [3H]-inositol phosphates)
Description: (§1) Measurement of activity of PLC in MDCK cells was determined by an adaptation of a previously published method (Schachter, J. B., et al. (1997) Neuropharm. 36:1181-1187). MDCK cells were seeded at 400,000 cells/well in a 12-well plate and subsequently cultured for four days. MDCK cell monolayers were then labeled with [^3H]-myo-inositol (1.6 μCi/well in 0.4 ml of inositol-free media) for 24 hours at 37° C. Assays were initiated on labeled cells that were removed from the incubator by immediately supplementing the cells with 100 μl of 250 mM HEPES (pH 7.3), containing 100 mM LiCl with or without compound. Subsequently, the cells were incubated for 30 minutes at 37° C. Immediately after the termination of this incubation, ATP (final concentration: 100 μM) or EGF (20 ng/ml) was added.
(§2) The cells were then incubated at 37° C. for 15 minutes to allow accumulation of [^3H]-inositol phosphates. Incubations were terminated by aspiration of the media and the addition of 1 ml of boiling 10 mM EDTA (pH 8.0). The supernatant was applied to AG1 X8 formate columns for chromatographic isolation of [^3H]-inositol phosphates (Berridge, M. J., et al. (1983) Biochem. J. 212:473-482). The amount of [^3H]-inositol phosphates was measured by liquid scintillation counting in a Packard Tri Carb 4000 Series spectrophotometer. Data from each experiment were normalized to the response observed with 100 μM ATP or 20 ng/ml EGF and were reported as the mean±SD of three experiments performed in triplicate. The IC50 (PLC) was determined by the concentration of compound that causes a 50% decrease in ATP- or EGF-stimulated accumulation of [^3H]-inositol phosphates.
To determine the ability alkylphosphocholines to inhibit PLC activity, the ability of these compounds to inhibit the ATP-mediated increases in the levels of inositol phosphates was determined. The separation between the counts from basal and ATP-stimulated levels of [^3H]-inositol-phosphates from MDCK cell monolayers was, however, marginal (approximately 1.5-fold) for a reliable determination of the ability of alkylphosphocholines to inhibit PLC activity. To increase this separation, MDCK cells that were transfected with a plasmid that encoded the P2Y2 receptor were employed. The P2Y2 receptor is G-protein coupled receptor that activates PLC (Pawelczyk, T., and Lowenstein, J. M. (1993) Biochem. Pharm. 45:493-497). The separation between the counts from basal and ATP-stimulated levels of [^3H]-inositol-phosphates from MDCK monolayers that express P2Y2 receptors increased to approximately a 3-fold difference (counts from basal and ATP-stimulated levels of [^3H]-inositol-phosphates ranged from 200 to 400 and 700 to 1200 cpm, respectively).

PLC-γ = test: EGF-stimulated PLC activity ([3H]-inositol phosphate accumulation) in MDCK cells; format: cell-based, canine; conditions: 20 ng/ml EGF
Description: as §1, §2

MDCK cell monolayers [1] = test: Effect on transepithelial electrical resistance (TEER) across MDCK cell monolayers; format: cell-based, canine; conditions: for EC50: 0.5 h, MDCK cells, apical, 30-minute incubation at 37° C., mean ± SD, read-out: EC50 (concentration required to decrease TEER by fifty percent); for Effect on TEER: 30-minute treatment
Description: (§3) For transport studies, MDCK cells, derived from normal proximal epithelial kidney cells of a male cocker spaniel, which is model for transport experiments (Cho, M. J., et al. (1989) Pharm. Res. 6:71-77), were grown on TRANSWELL™ multi-well plates. Each well was seeded with 200,000 cells. The cells were then grown in cell media (MEM with 1% antibiotic, supplemented with 10% fetal bovine serum (FBS) and 1% NEAA), and were maintained at 37° C. and 5% CO2. Confluent cells were grown for four days where they differentiated into epithelial cell monolayers as evidenced by the establishment of a stable TEER.
TEER (expressed as Ω·cm^2) serves as a measure of functional integrity of tight junctions. TEER was measured by an EVOM Epithelial Tissue Voltohmeter (World Precision Instruments, Sarasota, Fla.) and an Endohm-12 electrode (World Precision Instruments, Sarasota, Fla.). TEER values of MDCK cells that formed a functional monolayer ranged between 150-250 Ω·cm^2.
Experiments were initiated by adding 0.5 mL of HBSS supplemented with 10 mM HEPES, pH 7.4 (transport buffer) containing compound or vehicle to the apical side of the TRANSWELL™ multi-well plate. […] Data from each experiment were normalized to the response from the vehicle and were reported as the mean±SD of three experiments performed in triplicate.
The effect of akylphosphocholines on TEER was evaluated at several concentrations, and the concentration that caused a 50% decrease in TEER with respect to the untreated control was defined as EC50 (Liu, D. Z., et al. (1999) J. Pharm. Sci. 88:1161-1168; Liu, D. Z., et al. (1999) J. Pharm. Sci. 88:1169-1174).

MDCK cell monolayers [2] = test: Effect on [14C]-mannitol flux across MDCK cell monolayers; format: cell-based, canine; conditions: for EC10x (concentration that increases mannitol flux by ten fold): MDCK cells, apical, flux measured between 30 and 60 minutes of treatment, mean ± SD
Description: as §3
Mannitol, a hydrophilic compound, cannot readily cross the epithelial membrane, and must transverse the epithelium via the paracellular pathway. Therefore, the flux of mannitol through the epithelium is a reflection of the permeability of the paracellular pathway. Detection of mannitol is accomplished with [^3H] or [^14C] radiolabels.
The integrity of the tight junctions of cell monolayers was monitored with the measurement of TEER prior to the experiment. Transport experiments were initiated by replacing the apical media with 0.5 mL of transport buffer containing compound or vehicle, and [^14C]-mannitol. Concentration of [^14C]-mannitol was 25 μM (55 mCi/mmol). Transport rates were monitored by the measurement of the amount of [^14C]-mannitol accumulated in the basolateral side (1.5 mL) during two 30-minute intervals. The amount of radiolabeled [^14C]-mannitol transported was measured by liquid scintillation counting in a Packard Tri Carb 4000 Series spectrophotometer available from Packard Instrument Company of Meriden, Conn. All transport experiments were carried out under sink conditions (transport experiments were designed such that less than 10% of the total amount of [^14C]-mannitol was present on the basolateral side at any given time). The effect of alkylphosphocholines on the transport of [^14C]-mannitol was normalized to the transport of [^14C]-mannitol in the vehicle-treated cells and was reported as the mean±SD of three experiments performed in triplicate. The EC10x was determined by the concentration of compound that causes a 10-fold increase in mannitol flux with respect to the vehicle treated control.

PLC = conditions: Perrella et al. 1994; cited from earlier work
[3] = in animals; cited from earlier work

Row | SMILES | Effect on ATP-stimulated PLC (PLC-β) activity (PLC-β) | IC50 (PLC-β) | Effect on EGF-stimulated PLC-γ activity (PLC-γ) | EC50 (MDCK cell monolayers [1]; Canis lupus familiaris) | EC10x (concentration that increases mannitol flux by ten fold) (MDCK cell monolayers [2]) | other results
1 | O=c1oc2ccccc2cc1[N+](=O)[O-] [3-nitrocoumarin, reference compound] | no inhibitory activity toward PLC-β | 21 ± 5 µM | inhibited EGF-stimulated PLC-γ activity | 24 ± 1 µM | 34 ± 5 µM | 
2 | O=c1oc2cc(O)ccc2cc1[N+](=O)[O-] [7-hydroxy-3-nitrocoumarin] |  |  |  |  |  | PLC inhibition, previously reported (PLC): previously reported not to inhibit PLC
3 | CCCCCCCCCCCCOP(=O)([O-])OCC[N+](C)(C)C [C12, Dodecylphosphocholine] |  | 275 ± 135 µM |  | 733 ± 32 µM | 900 ± 100 µM | Full extent of PLC inhibition (PLC-β; ATP-stimulated inositol phosphate production): 50%
4 | CCCCCCCCCCCCCCOP(=O)([O-])OCC[N+](C)(C)C [C14] |  | 73 ± 9 µM |  | 44 ± 11 µM | 91 ± 11 µM | 
5 | CCCCCCCCCCCCCCCCOP(=O)([O-])OCC[N+](C)(C)C [C16, Hexadecylphosphocholine] | inhibited ATP-stimulated PLC-β activity | 36 ± 18 µM | had no effect on EGF-stimulated PLC-γ activity | 29 ± 5 µM | 30 ± 8 µM | activity at 30 µM (MDCK cell monolayers [1]; Canis lupus familiaris, MDCK, 2 h, 30 μM, over a two-hour period, read-out: TEER, % of control values): < 10%
6 | CCCCCCCCCCCCCCCCCCOP(=O)([O-])OCC[N+](C)(C)C [C18] |  | 30 ± 2 µM |  | 59 ± 8 µM | 66 ± 11 µM | 
7 | CCCCCCCCCCCCCCCCCCCCOP(=O)([O-])OCC[N+](C)(C)C [C20] |  | 48 ± 5 µM |  | 71 ± 8 µM | 73 ± 1 µM | 
8 | COc1ccc2c(c1)CCC1C2CCC2(C)C(NCCCCCCN3C(=O)C=CC3=O)CCC12 (centres unmarked) [U-73,122, reference compound] | inhibited ATP-stimulated PLC-β activity | 7 ± 3 µM | had no effect on EGF-stimulated PLC-γ activity | 6 ± 2 µM | 6 ± 2 µM | Effect on TEER (MDCK cell monolayers [1]): potently decreased TEER; Effect on mannitol flux (MDCK cell monolayers [2]; interval between 30 and 60 minutes of treatment): increased mannitol flux
9 | COc1ccc2c(c1)CC[C@@H]1[C@@H]2CC[C@]2(C)[C@@H](NCCCCCCN3C(=O)CCC3=O)CC[C@@H]12 [U-73,343, reference compound] | did not decrease TEER or ATP-stimulated PLC activity |  |  |  |  | Effect on TEER (MDCK cell monolayers [1]): did not decrease TEER
10 | CO[C@@]1(NC(=O)Cc2cccs2)C(=O)N2C(C(=O)O)=C(COC(N)=O)CS[C@@H]21 [cefoxitin] |  |  |  |  |  | Oral bioavailability [3]: less than five percent
